These results are taken from ChEMBL document CHEMBL1221332, “[3-azabicyclo[3.1.0]hex-1-yl]phenyl-benzenesulfonamides as selective dopamine D3 antagonists” (Bioorg Med Chem Lett, 2010).

One data set has as its target D(3) dopamine receptor (Homo sapiens, UniProt P35462). As to the kind of experiment: Antagonist activity at dopamine D3 receptor by GTPgammaS binding assay. It is filed as functional.
For data set [1], the target named is Voltage-gated inwardly rectifying potassium channel KCNH2 (Homo sapiens, UniProt Q12809).
A further data set concerns the target D(2) dopamine receptor (Homo sapiens, UniProt P14416).
Data set [2] is described as follows: Ratio of drug level in brain to plasma in rat. It is filed as ADME.

pIC50, pKi: −log10 of the molar value. Where only a bound is given, the exact number is not on record here.

Chain of D(2) dopamine receptor (P14416 whole entry): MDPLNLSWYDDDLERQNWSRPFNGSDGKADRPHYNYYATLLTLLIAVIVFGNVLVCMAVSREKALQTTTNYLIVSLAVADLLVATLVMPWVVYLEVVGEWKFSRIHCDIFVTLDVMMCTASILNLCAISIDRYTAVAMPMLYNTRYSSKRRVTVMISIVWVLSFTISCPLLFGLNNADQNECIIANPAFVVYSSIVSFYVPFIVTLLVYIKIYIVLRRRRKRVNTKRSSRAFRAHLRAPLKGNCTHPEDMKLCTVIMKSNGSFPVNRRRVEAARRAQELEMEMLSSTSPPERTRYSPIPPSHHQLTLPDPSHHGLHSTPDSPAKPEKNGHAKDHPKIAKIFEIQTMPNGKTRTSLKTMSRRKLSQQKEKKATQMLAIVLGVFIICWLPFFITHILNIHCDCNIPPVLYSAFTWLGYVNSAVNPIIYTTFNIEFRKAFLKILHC
Chain of Voltage-gated inwardly rectifying potassium channel KCNH2 (Q12809 whole entry): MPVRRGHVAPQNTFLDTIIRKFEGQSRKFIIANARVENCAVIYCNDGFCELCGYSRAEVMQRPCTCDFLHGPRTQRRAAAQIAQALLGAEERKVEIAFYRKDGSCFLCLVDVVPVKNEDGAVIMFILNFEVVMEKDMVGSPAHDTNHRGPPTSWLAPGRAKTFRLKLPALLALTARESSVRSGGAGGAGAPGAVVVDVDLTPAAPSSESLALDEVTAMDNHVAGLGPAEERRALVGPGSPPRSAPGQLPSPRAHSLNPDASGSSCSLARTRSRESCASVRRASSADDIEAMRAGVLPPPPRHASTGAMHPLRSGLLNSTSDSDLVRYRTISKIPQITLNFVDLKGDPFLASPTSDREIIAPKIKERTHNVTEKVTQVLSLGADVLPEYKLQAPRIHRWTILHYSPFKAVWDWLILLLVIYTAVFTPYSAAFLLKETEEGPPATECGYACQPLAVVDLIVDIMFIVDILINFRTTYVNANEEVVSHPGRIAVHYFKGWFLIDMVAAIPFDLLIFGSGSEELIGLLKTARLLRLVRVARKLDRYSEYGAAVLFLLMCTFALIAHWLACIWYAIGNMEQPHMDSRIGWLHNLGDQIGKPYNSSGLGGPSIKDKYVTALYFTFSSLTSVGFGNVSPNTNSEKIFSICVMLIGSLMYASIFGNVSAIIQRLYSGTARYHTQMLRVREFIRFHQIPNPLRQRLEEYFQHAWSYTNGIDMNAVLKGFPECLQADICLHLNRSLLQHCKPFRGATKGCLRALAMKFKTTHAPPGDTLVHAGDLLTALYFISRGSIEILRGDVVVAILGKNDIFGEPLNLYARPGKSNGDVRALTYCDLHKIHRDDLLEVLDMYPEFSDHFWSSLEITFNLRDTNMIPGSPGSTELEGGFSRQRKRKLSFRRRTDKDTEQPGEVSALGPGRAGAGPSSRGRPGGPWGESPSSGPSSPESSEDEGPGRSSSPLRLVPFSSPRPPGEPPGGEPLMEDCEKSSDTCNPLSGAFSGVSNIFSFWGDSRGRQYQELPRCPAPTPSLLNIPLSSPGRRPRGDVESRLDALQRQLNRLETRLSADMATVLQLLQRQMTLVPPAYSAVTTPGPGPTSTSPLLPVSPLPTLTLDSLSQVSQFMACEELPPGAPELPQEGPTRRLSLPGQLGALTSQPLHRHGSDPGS
Chain of D(3) dopamine receptor (P35462 whole entry): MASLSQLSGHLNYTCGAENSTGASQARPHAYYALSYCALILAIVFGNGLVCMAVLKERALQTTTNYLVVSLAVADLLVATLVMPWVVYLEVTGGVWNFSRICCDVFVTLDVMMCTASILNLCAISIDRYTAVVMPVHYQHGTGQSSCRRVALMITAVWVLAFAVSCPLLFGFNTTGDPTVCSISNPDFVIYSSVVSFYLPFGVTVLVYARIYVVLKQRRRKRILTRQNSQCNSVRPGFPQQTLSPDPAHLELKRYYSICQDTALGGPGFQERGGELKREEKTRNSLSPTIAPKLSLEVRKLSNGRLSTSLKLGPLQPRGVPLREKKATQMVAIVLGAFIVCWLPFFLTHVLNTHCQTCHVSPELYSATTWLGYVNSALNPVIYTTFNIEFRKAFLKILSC
Description for D(2) dopamine receptor: Antagonist activity at dopamine D2 receptor by GTPgammaS binding assay

Turning to `CC(C)c1ccc(S(=O)(=O)Cc2ccc([C@]34CNC[C@H]3C4)cc2)cc1`, the values for the pKi at D(3) dopamine receptor and at D(2) dopamine receptor were 7.60 and 6.50, respectively. This compound had a pIC50 in data set [1] of 5.90.

Turning to `CN(c1ccc([C@]23CNC[C@H]2C3)cc1)S(=O)(=O)c1ccccc1`, the pKi is 7.10 on D(3) dopamine receptor and 6.30 on D(2) dopamine receptor. In data set [1], this compound gave a pIC50 of less than 4.20.

As to `CC(C)c1ccc(CS(=O)(=O)c2ccc([C@]34CNC[C@H]3C4)cc2)cc1`, the values for the negative-log Ki (pKi) on D(3) dopamine receptor and on D(2) dopamine receptor were 7.60 and less than 5.50, respectively. Besides, the pIC50 in data set [1] was 5.50.

Regarding `CCCCc1ccc(S(=O)(=O)Nc2ccc([C@]34CNC[C@H]3C4)cc2)cc1`, the results for the pKi at D(3) dopamine receptor and at D(2) dopamine receptor were 8.30 and 6.90, respectively.

For the compound `CCC(C)(C)c1ccc(S(=O)(=O)Nc2ccc([C@]34CNC[C@H]3C4)cc2)cc1`, the pKi on D(3) dopamine receptor is 8.20; at D(2) dopamine receptor, 7.30.

`CC(C)c1ccc(S(=O)(=O)Nc2ccc([C@@]34C[C@@H]3CN(C)C4)cc2)cc1`: the pKi was 8.20 on D(3) dopamine receptor and 7.20 on D(2) dopamine receptor. Besides, the Kp in data set [2] was found to be 7.3. In data set [1], the pIC50 is 5.80.

Regarding `CCN1C[C@H]2C[C@@]2(c2ccc(NS(=O)(=O)c3ccc(C(C)C)cc3)cc2)C1`, the pKi is 8.10 on D(3) dopamine receptor and 7.00 on D(2) dopamine receptor. Further, in data set [1], the pIC50 is 5.90.

As for `C=CCN1C[C@H]2C[C@@]2(c2ccc(NS(=O)(=O)c3ccc(C(C)C)cc3)cc2)C1`, the values for the pKi on D(3) dopamine receptor and at D(2) dopamine receptor were 8.60 and 7.20, respectively. The pIC50 in data set [1] is 7.00.

On to `COc1cc([C@]23CNC[C@H]2C3)ccc1NS(=O)(=O)c1ccc(C(C)C)cc1`, for which the pKi at D(2) dopamine receptor is 7.30.

`O=S(=O)(Nc1ccc([C@]23CNC[C@H]2C3)cc1)c1ccc(C(F)(F)F)cc1`: the figures for the pKi at D(3) dopamine receptor and at D(2) dopamine receptor were 6.60 and less than 5.50, respectively. In data set [1], the pIC50 was 6.10.

Take `O=S(=O)(Nc1ccc([C@]23CNC[C@H]2C3)cc1)c1ccc(OC(F)(F)F)cc1`: the pKi was 6.20 at D(3) dopamine receptor and 6.00 on D(2) dopamine receptor. Also, in data set [1], the pIC50 is 5.00.

At D(3) dopamine receptor, `CC(C)c1ccc(S(=O)(=O)Nc2ccc([C@]34CNC[C@H]3C4)cc2)cc1` (racemic) had a pKi of 8.60. For the same compound, the pIC50 in data set [1] was 6.00.

For `CC(C)c1ccc(S(=O)(=O)Nc2ccc(C34CNCC3C4)cc2)cc1` (single isomer, unassigned; enantiomer 1), the pKi on D(3) dopamine receptor was 8.40. Also, in data set [1], the pIC50 is 5.30.

On D(3) dopamine receptor, `CC(C)c1ccc(S(=O)(=O)Nc2ccc(C34CNCC3C4)cc2)cc1` (single isomer, unassigned; enantiomer 2) showed a pKi of 6.70. Further, the negative-log IC50 (pIC50) in data set [1] is 5.80.
